Measurements taken from ChEMBL document CHEMBL1933067, “The design, synthesis and in vitro immunosuppressive evaluation of novel isobenzofuran derivatives” (Bioorg Med Chem Lett, 2012).

The molecules below were run on T-cell (assay: Immunosuppressive activity in mouse T-cells assessed as inhibition of concanavalin A-induced proliferation).
Format: functional, cell-based

Compound | IC50 [µM]
O=C(/C=C/c1ccccc1)Nc1ccc2c(c1)COC2=O | 7.24
O=C(/C=C/c1ccco1)Nc1ccc2c(c1)COC2=O | 9
O=C(/C=C/c1ccccn1)Nc1ccc2c(c1)COC2=O | 17.9
COc1ccc(/C=C/C(=O)Nc2ccc3c(c2)COC3=O)cc1OC | 0.029
O=C(/C=C/c1cccc(F)c1)Nc1ccc2c(c1)COC2=O | 0.034
O=C(/C=C/c1ccccc1Br)Nc1ccc2c(c1)COC2=O | > 100
N#Cc1ccc(/C=C/C(=O)Nc2ccc3c(c2)COC3=O)cc1 | 43.1
CC(=O)Oc1cccc(/C=C/C(=O)Nc2ccc3c(c2)COC3=O)c1 | 0.03
COc1cc(/C=C/C(=O)Nc2ccc3c(c2)COC3=O)cc(OC)c1OC | 1.73
COc1ccccc1/C=C/C(=O)Nc1ccc2c(c1)COC2=O | 0.039
COc1cc(/C=C/C(=O)Nc2ccc3c(c2)COC3=O)ccc1OC(C)=O | 0.136
CC(C)c1ccc(/C=C/C(=O)Nc2ccc3c(c2)COC3=O)cc1 | 1.59
CC(C)(C)c1ccc(/C=C/C(=O)Nc2ccc3c(c2)COC3=O)cc1 | 0.72
CC(=O)Oc1ccc(/C=C/C(=O)Nc2ccc3c(c2)COC3=O)cc1OC(C)=O | 0.18
COc1cc(CCC(=O)Nc2ccc3c(c2)COC3=O)cc(OC)c1OC | 7.74
O=C(Nc1ccccc1)Nc1ccc2c(c1)COC2=O | 7.09
CN(C(=O)Nc1ccc2c(c1)COC2=O)c1ccccc1 | > 100
Cc1ccccc1NC(=O)Nc1ccc2c(c1)COC2=O | 0.9

Compound | IC50 [µM]
Cc1cccc(NC(=O)Nc2ccc3c(c2)COC3=O)c1 | 2.26
Cc1ccc(NC(=O)Nc2ccc3c(c2)COC3=O)cc1 | 2.67
O=C(Nc1ccc(F)cc1)Nc1ccc2c(c1)COC2=O | 4.19
O=C(Nc1ccc(Cl)cc1)Nc1ccc2c(c1)COC2=O | 2.45
O=C(Nc1ccc(I)cc1)Nc1ccc2c(c1)COC2=O | 1.37
O=C(Nc1ccc2c(c1)COC2=O)NC1CCCCC1 | 12.7
CCCNC(=O)Nc1ccc2c(c1)COC2=O | 58.1
O=C(Nc1ccccc1)C(=O)Nc1ccc2c(c1)COC2=O | 36.1
CN(Cc1ccccc1)C(=O)C(=O)Nc1ccc2c(c1)COC2=O | 14.3
CC(C)(C)NC(=O)C(=O)Nc1ccc2c(c1)COC2=O | 3.4
O=C(Nc1ccc(F)cc1)C(=O)Nc1ccc2c(c1)COC2=O | 0.57
O=C(Nc1ccc(Cl)cc1)C(=O)Nc1ccc2c(c1)COC2=O | 2.24
O=C(Nc1ccc(O)cc1)C(=O)Nc1ccc2c(c1)COC2=O | 5.03
COc1ccc(NC(=O)C(=O)Nc2ccc3c(c2)COC3=O)cc1 | 153
Cc1ccccc1NC(=O)C(=O)Nc1ccc2c(c1)COC2=O | 5.51
COc1cc(CN(C)C(=O)C(=O)Nc2ccc3c(c2)COC3=O)cc(OC)c1OC | 3.28
O=C(Nc1cccc([N+](=O)[O-])c1)C(=O)Nc1ccc2c(c1)COC2=O | 1.82
COc1c(C)c2c(c(O)c1C/C=C(\C)CCC(=O)O)C(=O)OC2 [MYCOPHENOLIC ACID] | 0.28

Each molecule was assayed against Inosine-5'-monophosphate dehydrogenase 2 (Homo sapiens, UniProt P12268) (assay: Inhibition of IMPDH2).

Compound | IC50 [µM]
COc1ccc(/C=C/C(=O)Nc2ccc3c(c2)COC3=O)cc1OC | 2.1
O=C(/C=C/c1cccc(F)c1)Nc1ccc2c(c1)COC2=O | 4.5
CC(=O)Oc1cccc(/C=C/C(=O)Nc2ccc3c(c2)COC3=O)c1 | 8.8
CC(C)(C)c1ccc(/C=C/C(=O)Nc2ccc3c(c2)COC3=O)cc1 | 3.2
CC(=O)Oc1ccc(/C=C/C(=O)Nc2ccc3c(c2)COC3=O)cc1OC(C)=O | 2.8
